Data reported in the OligoGym collection.
Where “and” joins values, the source holds several entries; their conditions need not be identical. Identical values can stand only once. HELM strings list units from the 5' end as sugar, base in round brackets, then linkage (d deoxyribose, r ribose, m 2'-O-methyl, p phosphodiester). Methylation of C is not given here. [moe] = 2'-O-(2-methoxyethyl) (MOE); [cEt] = constrained ethyl (cEt); [sp] = phosphorothioate linkage

Target: HBV
Conditions: ASO

RNA1{[moe](G)[sp].[cEt](T)[sp].[cEt](G)[sp].d(A)[sp].d(A)[sp].d(G)[sp].d(C)[sp].d(G)[sp].d(A)[sp].d(A)[sp].d(G)[sp].d(T)[sp].d(G)[sp].[cEt](C)[sp].[cEt](A)[sp].[moe](C)}$$$$V2.0
target mRNA inhibition (HepG2, 0.07 µM): 68% and 75%

RNA1{[moe](G)[sp].[moe](T)[sp].[moe](G)[sp].[moe](A)[sp].[moe](A)[sp].d(G)[sp].d(C)[sp].d(G)[sp].d(A)[sp].d(A)[sp].d(G)[sp].d(T)[sp].d(G)[sp].d(C)[sp].[moe](A)[sp].[moe](C)[sp].[moe](A)}$$$$V2.0
target mRNA inhibition (HepG2, 0.0092593 µM): 0%
target mRNA inhibition (HepG2, 0.0277778 µM): 4%
target mRNA inhibition (HepG2, 0.07 µM): 77% and 75%
target mRNA inhibition (HepG2, 0.0833333 µM): 32%
target mRNA inhibition (HepG2, 0.25 µM): 62%

RNA1{[moe](G)[sp].[moe](A)[sp].[moe](A)[sp].[moe](C)[sp].[moe](T)[sp].[moe](G)[sp].d(G)[sp].d(A)[sp].d(G)[sp].d(C)[sp].d(C)[sp].d(A)[sp].d(C)[sp].d(C)[sp].d(A)[sp].[moe](G)[sp].[moe](C)}$$$$V2.0
target mRNA inhibition (HepG2, 0.07 µM): 55% and 48%

RNA1{[moe](A)[sp].[moe](A)[sp].[moe](G)[sp].[moe](C)[sp].d(G)[sp].d(A)[sp].d(A)[sp].d(G)[sp].d(T)[sp].d(G)[sp].d(C)[sp].d(A)[sp].d(C)[sp].[moe](A)[sp].[moe](C)[sp].[moe](G)[sp].[moe](G)}$$$$V2.0
target mRNA inhibition (HepG2, 0.0092593 µM): 5%
target mRNA inhibition (HepG2, 0.0277778 µM): 27%
target mRNA inhibition (HepG2, 0.07 µM): 78% and 64%
target mRNA inhibition (HepG2, 0.0833333 µM): 69%
target mRNA inhibition (HepG2, 0.25 µM): 81%

RNA1{[moe](A)[sp].[cEt](A)[sp].[moe](G)[sp].[cEt](C)[sp].d(G)[sp].[cEt](A)[sp].d(A)[sp].d(G)[sp].d(T)[sp].d(G)[sp].d(C)[sp].d(A)[sp].d(C)[sp].[moe](A)[sp].[moe](C)[sp].[moe](G)[sp].[moe](G)}$$$$V2.0
target mRNA inhibition (HepG2, 0.009375 µM): 31%
target mRNA inhibition (HepG2, 0.01875 µM): 28%
target mRNA inhibition (HepG2, 0.0375 µM): 48%
target mRNA inhibition (HepG2, 0.075 µM): 61%
target mRNA inhibition (HepG2, 0.15 µM): 80%
target mRNA inhibition (HepG2, 0.3 µM): 90%

RNA1{[moe](T)[sp].[moe](G)[sp].d(C)[sp].d(A)[sp].d(G)[sp].d(A)[sp].d(G)[sp].d(G)[sp].d(T)[sp].d(G)[sp].d(A)[sp].[moe](A)[sp].[moe](G)[sp].[moe](C)[sp].[moe](G)[sp].[moe](A)[sp].[moe](A)}$$$$V2.0
target mRNA inhibition (HepG2, 0.07 µM): 39% and 45%

RNA1{[moe](G)[sp].[moe](T)[sp].[moe](T)[sp].[moe](C)[sp].d(C)[sp].d(G)[sp].d(C)[sp].d(A)[sp].d(G)[sp].d(T)[sp].d(A)[sp].d(T)[sp].d(G)[sp].[moe](G)[sp].[moe](A)[sp].[moe](T)[sp].[moe](C)}$$$$V2.0
target mRNA inhibition (HepG2, 0.07 µM): 52% and 43%

RNA1{[moe](G)[sp].[moe](A)[sp].[moe](G)[sp].[moe](G)[sp].[moe](C)[sp].[moe](A)[sp].d(T)[sp].d(A)[sp].d(G)[sp].d(C)[sp].d(A)[sp].d(G)[sp].d(C)[sp].d(A)[sp].d(G)[sp].[moe](G)[sp].[moe](A)}$$$$V2.0
target mRNA inhibition (HepG2, 0.07 µM): 61% and 45%

RNA1{[moe](C)[sp].[cEt](T)[sp].[cEt](G)[sp].d(A)[sp].d(G)[sp].d(G)[sp].d(C)[sp].d(C)[sp].d(C)[sp].d(A)[sp].d(C)[sp].d(T)[sp].d(C)[sp].[cEt](C)[sp].[cEt](C)[sp].[moe](A)}$$$$V2.0
target mRNA inhibition (HepG2, 0.0092593 µM): 58%
target mRNA inhibition (HepG2, 0.0277778 µM): 83%
target mRNA inhibition (HepG2, 0.07 µM): 59% and 84%
target mRNA inhibition (HepG2, 0.0833333 µM): 90%
target mRNA inhibition (HepG2, 0.25 µM): 90%

RNA1{[moe](T)[sp].[moe](G)[sp].[moe](G)[sp].d(A)[sp].d(G)[sp].d(C)[sp].d(C)[sp].d(A)[sp].d(C)[sp].d(C)[sp].d(A)[sp].d(G)[sp].[moe](C)[sp].[moe](A)[sp].[moe](G)[sp].[moe](G)}$$$$V2.0
target mRNA inhibition (HepG2, 0.07 µM): 58% and 57%

RNA1{[moe](A)[sp].[moe](G)[sp].[moe](T)[sp].[moe](T)[sp].[moe](C)[sp].d(C)[sp].d(G)[sp].d(C)[sp].d(A)[sp].d(G)[sp].d(T)[sp].d(A)[sp].d(T)[sp].d(G)[sp].[moe](G)[sp].[moe](A)}$$$$V2.0
target mRNA inhibition (HepG2, 0.07 µM): 61% and 40%

RNA1{[moe](C)[sp].[cEt](A)[sp].[cEt](C)[sp].d(T)[sp].d(A)[sp].d(G)[sp].d(T)[sp].d(A)[sp].d(A)[sp].d(A)[sp].d(C)[sp].d(T)[sp].d(G)[sp].[cEt](A)[sp].[cEt](G)[sp].[moe](C)}$$$$V2.0
target mRNA inhibition (HepG2, 0.07 µM): 73% and 71%

RNA1{[moe](G)[sp].[moe](C)[sp].[moe](A)[sp].[moe](G)[sp].[moe](A)[sp].d(G)[sp].d(G)[sp].d(T)[sp].d(G)[sp].d(A)[sp].d(A)[sp].d(G)[sp].d(C)[sp].d(G)[sp].[moe](A)[sp].[moe](A)[sp].[moe](G)}$$$$V2.0
target mRNA inhibition (HepG2, 0.07 µM): 76% and 59%

RNA1{[moe](G)[sp].[moe](G)[sp].[moe](C)[sp].[moe](A)[sp].d(T)[sp].d(A)[sp].d(G)[sp].d(C)[sp].d(A)[sp].d(G)[sp].d(C)[sp].d(A)[sp].d(G)[sp].[moe](G)[sp].[moe](A)[sp].[moe](T)}$$$$V2.0
target mRNA inhibition (HepG2, 0.07 µM): 57% and 50%

RNA1{[moe](G)[sp].[moe](A)[sp].[moe](T)[sp].d(G)[sp].d(A)[sp].d(G)[sp].d(G)[sp].d(C)[sp].d(A)[sp].d(T)[sp].d(A)[sp].d(G)[sp].d(C)[sp].[cEt](A)[sp].[cEt](G)[sp].[cEt](C)}$$$$V2.0
target mRNA inhibition (HepG2, 0.07 µM): 56% and 66%

RNA1{[moe](T)[sp].[moe](G)[sp].[moe](C)[sp].d(A)[sp].d(G)[sp].d(A)[sp].d(G)[sp].d(G)[sp].d(T)[sp].d(G)[sp].d(A)[sp].d(A)[sp].d(G)[sp].[cEt](C)[sp].[cEt](G)[sp].[cEt](A)}$$$$V2.0
target mRNA inhibition (HepG2, 0.07 µM): 78% and 79%

RNA1{[moe](C)[sp].[cEt](T)[sp].[cEt](G)[sp].d(G)[sp].d(A)[sp].d(G)[sp].d(C)[sp].d(C)[sp].d(A)[sp].d(C)[sp].d(C)[sp].d(A)[sp].d(G)[sp].[cEt](C)[sp].[cEt](A)[sp].[moe](G)}$$$$V2.0
target mRNA inhibition (HepG2, 0.07 µM): 60% and 45%

RNA1{[moe](A)[sp].[moe](G)[sp].[moe](C)[sp].d(G)[sp].d(A)[sp].d(A)[sp].d(G)[sp].d(T)[sp].d(G)[sp].d(C)[sp].d(A)[sp].d(C)[sp].[moe](A)[sp].[moe](C)[sp].[moe](G)[sp].[moe](G)}$$$$V2.0
target mRNA inhibition (HepG2, 0.0092593 µM): 11%
target mRNA inhibition (HepG2, 0.0277778 µM): 34%
target mRNA inhibition (HepG2, 0.07 µM): 79% and 70%
target mRNA inhibition (HepG2, 0.0833333 µM): 66%
target mRNA inhibition (HepG2, 0.25 µM): 87%

RNA1{[moe](G)[sp].[cEt](A)[sp].d(G)[sp].d(A)[sp].d(G)[sp].d(A)[sp].d(A)[sp].d(G)[sp].d(T)[sp].d(C)[sp].d(C)[sp].d(A)[sp].[cEt](C)[sp].[moe](C)[sp].[cEt](A)[sp].[moe](C)}$$$$V2.0
target mRNA inhibition (HepG2, 0.07 µM): 42% and 56%

RNA1{[moe](C)[sp].[moe](C)[sp].[moe](A)[sp].d(A)[sp].d(T)[sp].d(T)[sp].d(T)[sp].d(A)[sp].d(T)[sp].d(G)[sp].d(C)[sp].d(C)[sp].d(T)[sp].[cEt](A)[sp].[cEt](C)[sp].[cEt](A)}$$$$V2.0
target mRNA inhibition (HepG2, 0.07 µM): 37% and 34%

RNA1{[moe](A)[sp].[moe](T)[sp].[moe](T)[sp].[moe](T)[sp].[moe](A)[sp].d(T)[sp].d(G)[sp].d(C)[sp].d(C)[sp].d(T)[sp].d(A)[sp].d(C)[sp].d(A)[sp].d(G)[sp].[moe](C)[sp].[moe](C)}$$$$V2.0
target mRNA inhibition (HepG2, 0.07 µM): 47% and 41%

RNA1{[moe](A)[sp].[moe](C)[sp].[moe](T)[sp].[moe](A)[sp].[moe](G)[sp].d(T)[sp].d(A)[sp].d(A)[sp].d(A)[sp].d(C)[sp].d(T)[sp].d(G)[sp].d(A)[sp].d(G)[sp].[moe](C)[sp].[moe](C)[sp].[moe](A)}$$$$V2.0
target mRNA inhibition (HepG2, 0.07 µM): 67% and 61%

RNA1{[moe](G)[sp].[moe](A)[sp].[moe](A)[sp].d(G)[sp].d(C)[sp].d(G)[sp].d(A)[sp].d(A)[sp].d(G)[sp].d(T)[sp].d(G)[sp].d(C)[sp].[moe](A)[sp].[moe](C)[sp].[moe](A)[sp].[moe](C)[sp].[moe](G)}$$$$V2.0
target mRNA inhibition (HepG2, 0.07 µM): 76% and 60%

RNA1{[moe](A)[sp].[cEt](G)[sp].[cEt](C)[sp].d(G)[sp].d(A)[sp].d(A)[sp].d(G)[sp].d(T)[sp].d(G)[sp].d(C)[sp].d(A)[sp].d(C)[sp].d(A)[sp].[cEt](C)[sp].[cEt](G)[sp].[moe](G)}$$$$V2.0
target mRNA inhibition (HepG2, 0.0092593 µM): 19%
target mRNA inhibition (HepG2, 0.0277778 µM): 52%
target mRNA inhibition (HepG2, 0.07 µM): 83% and 82%
target mRNA inhibition (HepG2, 0.0833333 µM): 86%
target mRNA inhibition (HepG2, 0.25 µM): 93%

RNA1{[moe](A)[sp].[moe](A)[sp].d(C)[sp].d(T)[sp].d(G)[sp].d(G)[sp].d(A)[sp].d(G)[sp].d(C)[sp].d(C)[sp].d(A)[sp].[moe](C)[sp].[moe](C)[sp].[moe](A)[sp].[moe](G)[sp].[moe](C)}$$$$V2.0
target mRNA inhibition (HepG2, 0.07 µM): 48% and 43%

RNA1{[moe](G)[sp].[moe](C)[sp].d(A)[sp].d(C)[sp].d(T)[sp].d(A)[sp].d(G)[sp].d(T)[sp].d(A)[sp].d(A)[sp].d(A)[sp].[moe](C)[sp].[moe](T)[sp].[moe](G)[sp].[moe](A)[sp].[moe](G)[sp].[moe](C)}$$$$V2.0
target mRNA inhibition (HepG2, 0.07 µM): 75% and 78%

RNA1{[moe](T)[sp].[moe](G)[sp].[moe](A)[sp].[moe](G)[sp].[moe](G)[sp].[moe](C)[sp].d(A)[sp].d(T)[sp].d(A)[sp].d(G)[sp].d(C)[sp].d(A)[sp].d(G)[sp].d(C)[sp].d(A)[sp].[moe](G)[sp].[moe](G)}$$$$V2.0
target mRNA inhibition (HepG2, 0.07 µM): 58% and 44%

RNA1{[moe](T)[sp].[cEt](G)[sp].[cEt](A)[sp].d(G)[sp].d(G)[sp].d(C)[sp].d(C)[sp].d(C)[sp].d(A)[sp].d(C)[sp].d(T)[sp].d(C)[sp].d(C)[sp].[cEt](C)[sp].[cEt](A)[sp].[moe](T)}$$$$V2.0
target mRNA inhibition (HepG2, 0.07 µM): 56% and 80%

RNA1{[moe](C)[sp].[moe](C)[sp].[moe](G)[sp].d(C)[sp].d(A)[sp].d(G)[sp].d(T)[sp].d(A)[sp].d(T)[sp].d(G)[sp].d(G)[sp].d(A)[sp].[moe](T)[sp].[moe](C)[sp].[moe](G)[sp].[moe](G)}$$$$V2.0
target mRNA inhibition (HepG2, 0.0092593 µM): 0%
target mRNA inhibition (HepG2, 0.0277778 µM): 23%
target mRNA inhibition (HepG2, 0.07 µM): 75% and 76%
target mRNA inhibition (HepG2, 0.0833333 µM): 56%
target mRNA inhibition (HepG2, 0.25 µM): 79%
